Measured values reported in publication PMC9329436, “Optimization of the 4-anilinoquin(az)oline scaffold as epidermal growth factor receptor (EGFR) inhibitors for chordoma utilizing a toxicology profiling assay platform” (Scientific Reports, 2022).
Read-outs that look alike come from different tables or passages of the source.

Columns and labels:
Assay type in all cases: biochemical
[1] = molecular target: 320 wild-type protein kinases (Homo sapiens, UniProt Q6IQ55); details: kinase TTBK2, singlicate
Source text: (§1) Table S4. Profiling of two compounds at two concentrations against 320 wild-type protein kinases; singlicate measurement; Residual activities (% of control).

[2] = molecular target: T1, 320 wild-type protein kinases (Homo sapiens, UniProt Q06418); details: kinase TYRO3, singlicate
T1 sequence (Q06418 41-890): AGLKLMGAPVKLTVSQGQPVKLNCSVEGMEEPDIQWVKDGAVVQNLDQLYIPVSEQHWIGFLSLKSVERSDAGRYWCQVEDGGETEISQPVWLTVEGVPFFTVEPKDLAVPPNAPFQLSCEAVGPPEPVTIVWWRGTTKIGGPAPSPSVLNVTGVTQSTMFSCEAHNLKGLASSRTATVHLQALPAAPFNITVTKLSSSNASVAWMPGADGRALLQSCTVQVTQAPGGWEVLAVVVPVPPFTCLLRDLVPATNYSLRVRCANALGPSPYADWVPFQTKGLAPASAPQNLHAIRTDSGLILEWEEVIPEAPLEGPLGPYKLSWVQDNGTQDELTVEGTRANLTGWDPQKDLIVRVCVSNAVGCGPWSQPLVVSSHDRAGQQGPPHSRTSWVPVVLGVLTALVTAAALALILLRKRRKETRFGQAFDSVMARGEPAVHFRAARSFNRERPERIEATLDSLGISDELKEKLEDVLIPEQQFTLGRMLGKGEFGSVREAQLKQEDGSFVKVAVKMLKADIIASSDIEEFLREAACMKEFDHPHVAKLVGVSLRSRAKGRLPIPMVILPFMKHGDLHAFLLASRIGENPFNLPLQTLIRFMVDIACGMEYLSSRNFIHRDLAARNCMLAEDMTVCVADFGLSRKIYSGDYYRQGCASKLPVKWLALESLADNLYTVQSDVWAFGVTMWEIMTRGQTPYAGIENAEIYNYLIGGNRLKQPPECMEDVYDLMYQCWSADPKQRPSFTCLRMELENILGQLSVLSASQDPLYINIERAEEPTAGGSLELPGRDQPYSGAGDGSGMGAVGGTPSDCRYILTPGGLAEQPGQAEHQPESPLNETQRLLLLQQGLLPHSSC
Source text: as §1

[3] = molecular target: T2, 320 wild-type protein kinases (Homo sapiens, UniProt P45985); details: singlicate
T2 sequence (P45985 1-399): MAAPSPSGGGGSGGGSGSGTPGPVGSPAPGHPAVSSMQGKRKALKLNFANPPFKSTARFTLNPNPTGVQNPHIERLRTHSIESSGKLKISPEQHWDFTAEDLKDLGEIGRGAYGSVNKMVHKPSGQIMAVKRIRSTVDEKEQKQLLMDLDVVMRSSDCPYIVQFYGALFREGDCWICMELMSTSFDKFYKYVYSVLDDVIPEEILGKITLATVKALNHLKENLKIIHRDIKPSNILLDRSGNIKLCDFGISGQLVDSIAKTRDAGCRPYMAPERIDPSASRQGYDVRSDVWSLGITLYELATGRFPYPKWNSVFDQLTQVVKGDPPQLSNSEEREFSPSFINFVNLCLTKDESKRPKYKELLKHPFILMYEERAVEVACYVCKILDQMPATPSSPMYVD
Source text: as §1

[4] = molecular target: 320 wild-type protein kinases (Homo sapiens, UniProt P12931); details: kinase SRC (GST-HIS-tag), singlicate
Source text: as §1

[5] = molecular target: T3, 320 wild-type protein kinases (Homo sapiens, UniProt Q99759); details: singlicate
T3 sequence (Q99759 1-626): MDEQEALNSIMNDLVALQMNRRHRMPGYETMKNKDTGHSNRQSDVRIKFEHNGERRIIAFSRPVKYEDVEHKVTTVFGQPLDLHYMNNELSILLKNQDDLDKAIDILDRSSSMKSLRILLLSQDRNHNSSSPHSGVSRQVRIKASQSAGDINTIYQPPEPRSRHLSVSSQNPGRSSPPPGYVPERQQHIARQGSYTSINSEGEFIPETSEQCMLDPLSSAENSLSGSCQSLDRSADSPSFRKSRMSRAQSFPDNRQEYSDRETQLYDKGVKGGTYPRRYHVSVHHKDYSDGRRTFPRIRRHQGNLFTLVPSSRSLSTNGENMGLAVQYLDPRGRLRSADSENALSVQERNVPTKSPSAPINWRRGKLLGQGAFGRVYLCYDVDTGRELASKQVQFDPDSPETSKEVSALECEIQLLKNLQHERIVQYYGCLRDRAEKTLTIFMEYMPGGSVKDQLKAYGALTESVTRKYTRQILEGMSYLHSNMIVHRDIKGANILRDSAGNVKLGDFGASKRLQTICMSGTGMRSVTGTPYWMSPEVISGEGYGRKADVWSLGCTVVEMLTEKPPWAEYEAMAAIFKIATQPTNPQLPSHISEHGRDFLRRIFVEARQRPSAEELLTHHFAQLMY
Source text: as §1

[6] = molecular target: 320 wild-type protein kinases (Homo sapiens, UniProt O96013); details: singlicate
Source text: as §1

[7] = molecular target: 320 wild-type protein kinases (Homo sapiens, UniProt P05771); details: singlicate
Source text: as §1

Chain of 320 wild-type protein kinases (Homo sapiens, UniProt P05771) (P05771 whole entry): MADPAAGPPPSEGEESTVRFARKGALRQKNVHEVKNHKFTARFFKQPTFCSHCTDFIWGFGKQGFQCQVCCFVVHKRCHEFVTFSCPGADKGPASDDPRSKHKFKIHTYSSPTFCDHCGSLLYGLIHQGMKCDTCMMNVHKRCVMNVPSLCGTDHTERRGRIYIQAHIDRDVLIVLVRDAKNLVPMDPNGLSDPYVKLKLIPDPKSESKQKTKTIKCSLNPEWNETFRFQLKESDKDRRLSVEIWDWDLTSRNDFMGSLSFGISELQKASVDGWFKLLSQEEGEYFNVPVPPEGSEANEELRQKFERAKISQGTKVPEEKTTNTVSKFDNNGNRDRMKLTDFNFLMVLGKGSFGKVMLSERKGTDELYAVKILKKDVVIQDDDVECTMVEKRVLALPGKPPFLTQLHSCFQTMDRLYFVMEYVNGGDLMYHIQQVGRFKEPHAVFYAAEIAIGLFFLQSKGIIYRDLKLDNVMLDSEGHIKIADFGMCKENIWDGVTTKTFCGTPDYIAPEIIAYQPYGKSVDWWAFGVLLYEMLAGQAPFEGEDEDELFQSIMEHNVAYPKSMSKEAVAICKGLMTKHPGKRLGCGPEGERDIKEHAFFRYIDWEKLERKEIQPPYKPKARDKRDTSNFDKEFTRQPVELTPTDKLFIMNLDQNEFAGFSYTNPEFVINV
Chain of 320 wild-type protein kinases (Homo sapiens, UniProt O96013) (O96013 whole entry): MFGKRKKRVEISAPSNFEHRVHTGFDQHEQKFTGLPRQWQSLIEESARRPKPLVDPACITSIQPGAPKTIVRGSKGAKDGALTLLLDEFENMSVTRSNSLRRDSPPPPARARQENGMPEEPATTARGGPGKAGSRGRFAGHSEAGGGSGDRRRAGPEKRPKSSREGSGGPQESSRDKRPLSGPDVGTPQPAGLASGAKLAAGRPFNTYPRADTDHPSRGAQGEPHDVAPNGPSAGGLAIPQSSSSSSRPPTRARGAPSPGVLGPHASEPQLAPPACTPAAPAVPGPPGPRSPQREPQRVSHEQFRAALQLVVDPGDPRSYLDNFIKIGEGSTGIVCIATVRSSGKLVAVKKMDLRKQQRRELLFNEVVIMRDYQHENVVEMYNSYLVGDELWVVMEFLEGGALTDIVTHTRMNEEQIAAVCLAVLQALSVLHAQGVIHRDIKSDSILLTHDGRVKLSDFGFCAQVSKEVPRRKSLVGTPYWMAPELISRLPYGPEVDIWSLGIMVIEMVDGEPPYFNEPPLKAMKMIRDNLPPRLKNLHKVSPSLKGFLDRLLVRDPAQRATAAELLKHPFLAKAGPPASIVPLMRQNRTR
Chain of 320 wild-type protein kinases (Homo sapiens, UniProt P12931) (P12931 whole entry): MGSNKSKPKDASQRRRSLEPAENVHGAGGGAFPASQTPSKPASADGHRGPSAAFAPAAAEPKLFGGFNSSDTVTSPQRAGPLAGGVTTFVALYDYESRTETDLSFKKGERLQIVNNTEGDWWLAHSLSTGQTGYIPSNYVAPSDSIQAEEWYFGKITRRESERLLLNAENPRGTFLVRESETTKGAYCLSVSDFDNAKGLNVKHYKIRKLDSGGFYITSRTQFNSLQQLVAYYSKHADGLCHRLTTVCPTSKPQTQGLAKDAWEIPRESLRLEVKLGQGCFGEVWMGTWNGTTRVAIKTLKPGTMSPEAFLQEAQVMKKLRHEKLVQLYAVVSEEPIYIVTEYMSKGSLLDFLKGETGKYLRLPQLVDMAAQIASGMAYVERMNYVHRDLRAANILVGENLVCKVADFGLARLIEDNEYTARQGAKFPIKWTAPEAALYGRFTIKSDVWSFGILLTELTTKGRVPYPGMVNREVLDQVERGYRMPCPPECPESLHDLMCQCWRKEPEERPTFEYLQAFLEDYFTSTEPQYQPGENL
Chain of 320 wild-type protein kinases (Homo sapiens, UniProt Q6IQ55) (Q6IQ55 whole entry): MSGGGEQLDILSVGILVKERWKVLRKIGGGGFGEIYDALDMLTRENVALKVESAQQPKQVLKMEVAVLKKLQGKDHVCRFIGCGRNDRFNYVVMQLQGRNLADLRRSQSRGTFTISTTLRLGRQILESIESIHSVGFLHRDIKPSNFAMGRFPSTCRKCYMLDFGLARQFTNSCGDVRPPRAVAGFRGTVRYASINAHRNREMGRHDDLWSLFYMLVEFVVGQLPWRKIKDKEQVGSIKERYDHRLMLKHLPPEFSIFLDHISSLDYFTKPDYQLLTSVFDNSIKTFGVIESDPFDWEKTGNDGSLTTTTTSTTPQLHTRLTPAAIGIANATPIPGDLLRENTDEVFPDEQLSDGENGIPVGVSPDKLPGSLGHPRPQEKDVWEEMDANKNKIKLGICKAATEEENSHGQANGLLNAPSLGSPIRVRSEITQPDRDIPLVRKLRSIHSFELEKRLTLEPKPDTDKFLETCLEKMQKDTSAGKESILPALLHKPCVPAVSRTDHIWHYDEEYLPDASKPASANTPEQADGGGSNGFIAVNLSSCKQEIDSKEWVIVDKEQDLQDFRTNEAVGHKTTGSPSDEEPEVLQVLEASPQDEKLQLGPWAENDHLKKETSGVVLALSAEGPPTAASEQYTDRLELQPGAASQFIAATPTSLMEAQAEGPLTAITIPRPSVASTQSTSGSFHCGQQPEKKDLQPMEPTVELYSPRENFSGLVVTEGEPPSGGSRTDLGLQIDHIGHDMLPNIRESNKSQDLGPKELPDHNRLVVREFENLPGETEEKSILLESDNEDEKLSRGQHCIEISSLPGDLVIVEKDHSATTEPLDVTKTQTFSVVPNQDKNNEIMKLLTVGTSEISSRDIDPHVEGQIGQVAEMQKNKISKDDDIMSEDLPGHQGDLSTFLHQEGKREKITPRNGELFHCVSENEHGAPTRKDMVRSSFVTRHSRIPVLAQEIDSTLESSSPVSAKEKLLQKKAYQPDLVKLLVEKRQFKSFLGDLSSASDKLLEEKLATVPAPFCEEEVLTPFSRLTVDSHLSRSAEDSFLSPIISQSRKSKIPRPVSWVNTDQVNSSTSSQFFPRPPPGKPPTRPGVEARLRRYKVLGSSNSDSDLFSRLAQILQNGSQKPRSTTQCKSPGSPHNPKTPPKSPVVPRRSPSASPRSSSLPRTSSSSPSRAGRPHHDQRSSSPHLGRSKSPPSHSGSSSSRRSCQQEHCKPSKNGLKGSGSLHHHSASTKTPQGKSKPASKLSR

SMILES: C#Cc1cc(Nc2ncnc3cc(I)ccc23)ccc1Cl [Compound 41]
- Residual activity, TTBK2 ([1]; assay conc. 1.0E-06 M): 101 % of control
- Residual activity, TTBK2 ([1]; assay conc. 1.0E-07 M): 102 % of control
- Residual activity, TYRO3 ([2]; assay conc. 1.0E-06 M): 91 % of control
- Residual activity, TYRO3 ([2]; assay conc. 1.0E-07 M): 100 % of control
- Residual activity ([3]; MKK4, 1.0E-06 M): 93 % of control
- Residual activity ([3]; MKK4, 1.0E-07 M): 87 % of control
- Residual activity, SRC (GST-HIS-tag) ([4]; assay conc. 1.0E-06 M): 86 % of control
- Residual activity, SRC (GST-HIS-tag) ([4]; assay conc. 1.0E-07 M): 108 % of control
- Residual activity ([5]; MEKK3, 1.0E-06 M): 107 % of control
- Residual activity ([5]; MEKK3, 1.0E-07 M): 106 % of control
- Residual activity ([6]; PAK4, 1.0E-06 M): 82 % of control
- Residual activity ([6]; PAK4, 1.0E-07 M): 103 % of control
- Residual activity ([7]; PKC-beta1, 1.0E-06 M): 96 % of control
- Residual activity ([7]; PKC-beta1, 1.0E-07 M): 110 % of control

SMILES: C#Cc1cc(Nc2ncnc3cc(OC)c(OC)cc23)ccc1Cl [Compound 45]
- Residual activity, TTBK2 ([1]; assay conc. 1.0E-06 M): 95 % of control
- Residual activity, TTBK2 ([1]; assay conc. 1.0E-07 M): 96 % of control
- Residual activity, TYRO3 ([2]; assay conc. 1.0E-06 M): 58 % of control
- Residual activity, TYRO3 ([2]; assay conc. 1.0E-07 M): 93 % of control
- Residual activity ([3]; MKK4, 1.0E-06 M): 96 % of control
- Residual activity ([3]; MKK4, 1.0E-07 M): 88 % of control
- Residual activity, SRC (GST-HIS-tag) ([4]; assay conc. 1.0E-06 M): 90 % of control
- Residual activity, SRC (GST-HIS-tag) ([4]; assay conc. 1.0E-07 M): 100 % of control
- Residual activity ([5]; MEKK3, 1.0E-06 M): 117 % of control
- Residual activity ([5]; MEKK3, 1.0E-07 M): 115 % of control
- Residual activity ([6]; PAK4, 1.0E-06 M): 95 % of control
- Residual activity ([6]; PAK4, 1.0E-07 M): 103 % of control
- Residual activity ([7]; PKC-beta1, 1.0E-06 M): 88 % of control
- Residual activity ([7]; PKC-beta1, 1.0E-07 M): 95 % of control
